Assay type in all cases: in vivo
Series [1] has as its system Russian thistle (Salsola iberica L; SASKR). As to the kind of experiment: Postemergence herbicidal activity of mixtures, greenhouse, visual injury vs control. The note with it: for pest or weed control at 35 g/ha: 35 g/ha alone. The procedure:
(§1) Evaluation of Postemergence Herbicidal Activity of Mixtures in Cereal Crops
(§2) Seeds of the desired test plant species were planted in Sun Gro MetroMix® 306 planting mixture, which typically has a pH of 6.0 to 6.8 and an organic matter content of about 30 percent, in plastic pots with a surface area of 103.2 square centimeters (cm^2). When required to ensure good germination and healthy plants, a fungicide treatment and/or other chemical or physical treatment was applied. The plants were grown for 7-36 days (d) in a greenhouse with an approximate 14 hour (h) photoperiod which was maintained at about 18° C. during the day and 17° C. during the night. Nutrients and water were added on a regular basis and supplemental lighting was provided with overhead metal halide 1000-Watt lamps as necessary. The plants were employed for testing when they reached the second or third true leaf stage.
(§3) Treatments consisted of an insecticidal compound (as listed in Tables 1 through 18) and the cereal herbicide, 4-amino-3-chloro-6-(4-chloro-2-fluoro-3-methoxyphenyl)pyridine-2-carboxylic acid, alone and in combination. Weighed amounts of esters (methyl) or salts (triethylammonium, TEA) of 4-amino-3-chloro-6-(4-chloro-2-fluoro-3-methoxyphenyl)pyridine-2-carboxylic acid (Compound I) were placed in 25 milliliter (mL) glass vials and dissolved in a volume of 97:3 volume per volume (v/v) acetone/dimethyl sulfoxide (DMSO) to obtain 4.5 milligrams active ingredient per mL (mg ai/mL) concentrated solutions. […] The concentrated solutions of Compound I were diluted to 1.5 mg ai/mL with the addition of 2 volumes of an aqueous mixture containing acetone, water, isopropyl alcohol, DMSO, Agri-dex crop oil concentrate, and Triton® X-77 surfactant in a 64.7:26.0:6.7:2.0:0.7:0.01 v/v ratio. A dilution solution was prepared by mixing 1 volume of 97:3 v/v acetone/DMSO and 2 volumes of an aqueous mixture containing acetone, water, isopropyl alcohol, DMSO, Agri-dex crop oil concentrate, and Triton® X-77 surfactant in a 64.7:26.0:6.7:2.0:0.7:0.01 v/v ratio. Compound requirements are based upon a 12 mL application volume at a rate of 187 liters per hectare (L/ha). The concentrated solutions of the cereal insecticides were prepared following the same procedure. Weighed amounts of insecticide were placed in 25 milliliter (mL) glass vials and dissolved in a volume of 97:3 v/v acetone/DMSO to obtain concentrated insecticide solutions. The concentrated solutions of the safener were prepared following the same procedure. Weighed amounts of safener were placed in 25 mL glass vials and dissolved in a volume of 97:3 v/v acetone/DMSO to obtain concentrated safener solutions. The concentrated solutions were diluted to 0.75 mg/mL with an aqueous mixture of 1.5% v/v of Agri-dex crop oil concentrate.
(§4) Spray solutions of the cereal herbicide and the insecticidal compound mixtures were prepared by adding the concentrated solutions to the appropriate amount of dilution solution to form 12 mL spray solution with active ingredients in combinations. Spray solutions of the cereal herbicide, herbicide safener and the insecticidal compound mixtures were prepared by adding the concentrated solutions to the appropriate amount of dilution solution to form 12 mL spray solution with active ingredients in combinations. Formulated compounds were applied to the plant material with an overhead Mandel track sprayer equipped with 8002E nozzles calibrated to deliver 187 L/ha over an application area of 0.503 square meters (m^2) at a spray height of 18 inches […] above average plant canopy. Control plants were sprayed in the same manner with the solvent blank.
(§5) The treated plants and control plants were placed in a greenhouse as described above and watered by sub-irrigation to prevent wash-off of the test compounds. […]

The test system of series [2] is bird's-eye speedwell (Veronica persica L; VERPE). The series is described as above. The note with it: Veronica persica, post-emergence, read-out: Ob (observed injury); for pest or weed control at 35 g/ha: 35 g/ha alone. Here is the method: as §1, §2, §3, §4, §5
Series [3] concerns kochia (Kochia scoparia L; KCHSC). Described as above. The note with it: for pest or weed control at 35 g/ha: 35 g/ha alone. The procedure: as §1, §2, §3, §4, §5
Series [4] concerns wild pansy (Viola tricolor L; VIOTR). The series is described as above. The note with it: for pest or weed control at 35 g/ha: 35 g/ha alone. The procedure:
as §1, §2, §3, §4, §5

Series [5] deals with barley (Hordeum vulgare L; HORVS). Put plainly: Postemergence crop injury and safening, greenhouse, visual injury vs control. Conditions: for Ob (observed injury): 35 g/ha alone, crop injury. Here is the method:
as §1, §2, §3, §4, §5

The test system of series [6] is wheat (Triticum aestivum L; TRZAS). Described as above. Conditions: for Ob (observed injury): 35 g/ha alone, crop injury. Here is the method: as §1, §2, §3, §4, §5
Series [7] concerns Canada thistle (Cirsium arvense L; CIRAR). Put plainly: Postemergence herbicidal activity of mixtures, greenhouse, visual injury vs control. Here is the method: as §1, §2, §3, §4, §5
Series [8] has as its system redroot pigweed (Amaranthus retroflexus L; AMARE). The series is described as above. The procedure:
as §1, §2, §3, §4, §5

Series [9] has as its system scented mayweed (Matricaria chamomila L; MATCH). The description is as above. The procedure:
as §1, §2, §3, §4, §5

[10] abbreviates: Salsola tragus, post-emergence, read-out: Ob (observed injury).
Setting [11] is: Bassia scoparia, post-emergence, read-out: Ob (observed injury).
Setting [12] is: Viola tricolor, post-emergence, read-out: Ob (observed injury).
Where [13] appears, read: application rate g/ha: Compound I methyl ester 35, Malathion 0, Cloquintocet 0.

Three compounds from patent publication US8598084B2, “Synergistic herbicide/insecticide composition containing certain pyridine carboxylic acids and certain insecticides” (priority 2010, dated 2013) can be followed below.

Where “and” joins values, the source holds several entries; their conditions need not be identical. Equal entries are not always repeated.

For the compound `COc1c(Cl)ccc(-c2cc(N)c(Cl)c(C(=O)O)n2)c1F` [Compound I Acid, 4-Amino-3-chloro-6-(4-chloro-2-fluoro-3-methoxyphenyl)pyridine-2-carboxylic acid], the pest or weed control at 35 g/ha was determined as 89% in series [1] (setting [10]), 72% in series [2], 98% in series [3] (setting [11]) and 60% in series [4] (setting [12]). Also, the “Ob (observed injury)” value stood at 15% in series [5] and 22% in [6].
As to `COC(=O)c1nc(-c2ccc(Cl)c(OC)c2F)cc(N)c1Cl` [Compound I Methyl ester, 4-amino-3-chloro-6-(4-chloro-2-fluoro-3-methoxyphenyl)pyridine-2-carboxylic acid methyl ester], the “Ob (observed injury)” value is 62% in series [7] (17.5 g/ha alone); 90% in series [8] (17.5 g/ha alone); 28% and 32% in series [5]; 39% and 41% in [6]. Also, the pest or weed control at 8.75 g/ha in series [1] (Salsola tragus, post-emergence, 8.75 g/ha alone, read-out: Ob (observed injury)) was 71%; in series [2] (8.75 g/ha alone), 36%; in series [3] (Bassia scoparia, post-emergence, 8.75 g/ha alone, read-out: Ob (observed injury)), 79%; in [9] (Matricaria, post-emergence, 8.75 g/ha alone, read-out: Ob (observed injury)) it was 67%; in series [4] (Viola tricolor, post-emergence, 8.75 g/ha alone, read-out: Ob (observed injury)), 36%. In addition, the pest or weed control at 17.5 g/ha worked out at 81% in series [1] (Salsola tragus, post-emergence, 17.5 g/ha alone, read-out: Ob (observed injury)); 47% in series [2] (17.5 g/ha alone); 88% in series [3] (Bassia scoparia, post-emergence, 17.5 g/ha alone, read-out: Ob (observed injury)); 80% in series [9] (Matricaria, post-emergence, 17.5 g/ha alone, read-out: Ob (observed injury)); 44% in series [4] (Viola tricolor, post-emergence, 17.5 g/ha alone, read-out: Ob (observed injury)). The pest or weed control at 35 g/ha worked out at 89% in [1] (setting [10]); 73% in series [2]; 97% in series [3] (setting [11]); 88% in series [9] (Matricaria, post-emergence, 35 g/ha alone, read-out: Ob (observed injury)); 56% in series [4] (setting [12]). Moreover, the “SASKR Ob” value in [1] (setting [13]) was 89. In addition, the “KCHSC Ob” value in series [3] (setting [13]) is reported as 97. Also, the “MATCH Ob” value in [9] (setting [13]) worked out at 88. In addition, the “VIOTR Ob” value in [4] (setting [13]) came out at 56. Further, the “HORVS Ob” value in series [5] (setting [13]) is 32. Besides, the “TRZAS Ob” value in series [6] (setting [13]) is listed as 41.
For the compound `CC(C)[C@@H](Nc1ccc(C(F)(F)F)cc1Cl)C(=O)OC(C#N)c1cccc(Oc2ccccc2)c1` (stereo partly drawn) [Tau-fluvalinate, cyano(3-phenoxyphenyl)methyl N-[2-chloro-4-(trifluoromethyl)phenyl]-D-valinate, reference compound], the “Ob (observed injury)” value in [7] (48 g/ha alone) and in [8] (48 g/ha alone) was 0% each time. In addition, the pest or weed control at 48 g/ha in series [4] (Viola tricolor, post-emergence, 48 g/ha alone, read-out: Ob (observed injury)) is 0%.
